The values below come from paper PMC7726444 (Frontiers in Pharmacology, 2020).

A word on the IC50: it is the concentration that gives 50% inhibition.

The target in test [1] is T1, doubly truncated TPH1 (ΔNH102-ΔCOOH402) (Homo sapiens, UniProt P17752).
T1 construct: The ΔNH102-ΔCOOH402 human TPH1 gene was cloned; six-His (C); made in house
Kind of test: Tryptophan hydroxylase enzymatic activity assay (HPLC quantification of 5-OH-Trp), doubly truncated TPH1. The conditions noted are these: for reduction of TPH1 activity: 100 µM compound, preliminary activity assay; for IC50: doubly truncated TPH1, 20 µM L-Trp, 200 µM BH4, 37°C, mean (95% confidence interval), three experiments in duplicate; for fold less potent inhibitor of TPH1 than omeprazole: relative to omeprazole TPH1 IC50. In kind it is biochemical.

For test [2], the target named is T2, WT full-length TPH2 (Homo sapiens, UniProt Q8IWU9).
T2 construct: both the doubly truncated TPH1 protein and WT full-length TPH2 protein; made in house
T2 sequence (Q8IWU9 1-490): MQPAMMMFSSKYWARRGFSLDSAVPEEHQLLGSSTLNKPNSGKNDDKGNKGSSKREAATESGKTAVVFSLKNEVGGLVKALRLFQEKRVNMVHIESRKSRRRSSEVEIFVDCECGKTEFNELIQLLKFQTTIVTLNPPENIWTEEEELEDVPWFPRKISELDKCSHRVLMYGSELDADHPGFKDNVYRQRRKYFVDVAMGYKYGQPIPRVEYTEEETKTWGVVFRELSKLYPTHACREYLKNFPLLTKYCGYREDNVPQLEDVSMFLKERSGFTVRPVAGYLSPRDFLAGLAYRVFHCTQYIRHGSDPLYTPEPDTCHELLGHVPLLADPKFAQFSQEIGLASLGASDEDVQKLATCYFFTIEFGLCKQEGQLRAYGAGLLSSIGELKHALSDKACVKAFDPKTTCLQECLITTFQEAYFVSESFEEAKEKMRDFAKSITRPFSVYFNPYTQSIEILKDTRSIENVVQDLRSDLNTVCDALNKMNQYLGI
Briefly: Tryptophan hydroxylase enzymatic activity assay, WT full-length TPH2. It is filed as biochemical. Conditions: mean (95% confidence interval), three experiments in duplicate.

Test [3] addresses T3, MAO-A (Homo sapiens, UniProt P21397).
T3 construct: purchased BioVision, Inc, Milpitas, CA
T3 sequence (P21397 1-527): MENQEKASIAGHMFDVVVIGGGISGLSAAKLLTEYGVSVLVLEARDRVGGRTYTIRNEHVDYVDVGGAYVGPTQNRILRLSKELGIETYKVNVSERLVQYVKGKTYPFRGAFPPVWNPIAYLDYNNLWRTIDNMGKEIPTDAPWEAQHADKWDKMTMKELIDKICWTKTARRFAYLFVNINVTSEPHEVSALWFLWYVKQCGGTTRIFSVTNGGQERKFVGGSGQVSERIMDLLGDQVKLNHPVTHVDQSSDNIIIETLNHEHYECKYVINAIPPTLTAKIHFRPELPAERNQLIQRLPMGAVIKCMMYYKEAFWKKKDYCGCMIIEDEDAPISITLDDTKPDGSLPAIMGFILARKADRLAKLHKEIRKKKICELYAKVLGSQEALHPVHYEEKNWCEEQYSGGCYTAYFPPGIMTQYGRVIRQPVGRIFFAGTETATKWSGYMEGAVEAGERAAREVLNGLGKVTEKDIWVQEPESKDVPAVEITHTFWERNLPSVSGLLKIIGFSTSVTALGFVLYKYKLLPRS
Kind of test: MAO-A enzymatic activity assay (MAO-A Inhibitor Screening Kit, fluorimetric detection of H2O2). It is filed as biochemical. Conditions: 25°C, 15 min kinetic read; mean (95% confidence interval), three experiments. As for the experimental part:
The experiments were conducted following the manufacturer’s (BioVision, Inc, Milpitas, CA) instructions and were based on the fluorimetric detection of H2O2, a byproduct of the enzymatic activity of MAO-A, by measuring the fluorescence (Excitation/Emission at 535/587 nm) kinetically at 25°C for 15 min using a Tecan Spark plate reader (Tecan Group Ltd, Männedorf, Switzerland).
Relative inhibition of MAO-A was calculated as a percentage using the following Eq. 2: %Relative inhibition=((Slope of EC−Slope of S)/Slope of EC)×100 (2)
The slopes for all samples, either containing Enzyme Control (EC) or test substance (S), were calculated by dividing the net change in relative fluorescence units (ΔRFU; RFU2–RFU1) by the time interval (Δt; t2 –t1).

Test [4] deals with T3, MAO-A. More on the design: method as in Petzer et al., 2013. Conditions: ref Petzer et al., 2013; cited from earlier work.

SMILES strings stand for the structures. Read-outs that look alike come from different tables or passages of the source.

T1 sequence (P17752 102-402, stated change not applied): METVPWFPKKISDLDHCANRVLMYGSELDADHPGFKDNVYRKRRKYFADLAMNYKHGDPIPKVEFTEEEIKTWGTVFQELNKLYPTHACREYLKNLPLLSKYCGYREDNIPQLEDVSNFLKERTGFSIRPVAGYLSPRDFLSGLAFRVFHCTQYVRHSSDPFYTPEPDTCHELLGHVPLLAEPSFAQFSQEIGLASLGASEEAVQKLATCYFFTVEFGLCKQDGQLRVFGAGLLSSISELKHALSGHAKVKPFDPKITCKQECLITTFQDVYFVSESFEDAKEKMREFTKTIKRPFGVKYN

For the molecule `CSc1nc2cc(Cl)c(Oc3cccc(Cl)c3Cl)cc2[nH]1` [triclabendazole], in test [1], the “reduction of TPH1 activity” value is listed as “more than 50%” and the IC50 is around 100 µM.

As to `CC1CCc2cc(F)cc3c(=O)c(C(=O)O)cn1c23` (stereo not drawn) [flumequine], in test [1], the “reduction of TPH1 activity” value is on record as “more than 50%” and the IC50 was around 100 µM.

On to `COc1ccc2nc([S@@+]([O-])Cc3ncc(C)c(OC)c3C)[nH]c2c1` [Esomeprazole], for which the half-inhibitory concentration (IC50) in test [1] was 3.76 µM; in test [2] it was 2.15 µM; in test [3] it was 18 µM; in test [4] it was 23 µM.

Consider `Cc1c(OCC(F)(F)F)ccnc1C[S@@+]([O-])c1nc2ccccc2[nH]1` [(R)-lansoprazole], for which the 50% inhibitory concentration (IC50) is 18.8 µM in test [1], 3.36 µM in test [2] and 137 µM in test [3]. Also, the “fold less potent inhibitor of TPH1 than omeprazole” value (from here on “fold less potent inhibitor”) in test [1] is recorded as 6 fold.

Turning to `COc1ccnc(C[S+]([O-])c2nc3cc(-n4cccc4)ccc3[nH]2)c1C` (stereo not drawn) [Ilaprazole], the IC50 in test [2] was 0.53 µM; in test [3], 29 µM.

As to `COc1ccnc(C[S+]([O-])c2nc3ccc(OC(F)F)cc3[nH]2)c1OC` (stereo not drawn) [Pantoprazole], the half-maximal inhibitory concentration (IC50) is 21.7 µM in test [1], 8.2 µM in test [2] and 462 µM in test [3]. Further, the “fold less potent inhibitor” value in test [1] is listed as 6 fold.

In the case of `COCCCOc1ccnc(C[S+]([O-])c2nc3ccccc3[nH]2)c1C` (stereo not drawn) [Rabeprazole], the IC50 came out at 7.57 µM in test [1], 2.13 µM in test [2] and 12.8 µM in test [3].

For `Cc1c(OCC(F)(F)F)ccnc1C[S+]([O-])c1nc2ccccc2[nH]1` (stereo not drawn) [Lansoprazole], the IC50 in test [1] stood at 24.6 µM; in test [2], 5.21 µM; in test [3], 251 µM. The “fold less potent inhibitor” value in test [1] was found to be 6 fold.

For `COc1ccc2[nH]c([S+]([O-])Cc3ncc(C)c(OC)c3C)nc2n1` (stereo not drawn) [Tenatoprazole], the IC50 in test [1] worked out at 2.16 µM; in test [2] it was 4.9 µM; in test [3], 29.2 µM.

As to `COC(=O)C1=C(C#N)NC(C)=C(C(=O)OC(C)C)C1c1cccc([N+](=O)[O-])c1` (stereo not drawn) [nilvadipine], in test [1], the “reduction of TPH1 activity” value is recorded as “more than 50%” and the 50% inhibitory concentration (IC50) is around 100 µM.
